Data from publication PMC10498667 (Chemical Science, 2023).

Experiments:
[1] = test system: human neuroblastoma 5Y cells; assay: MTT cytotoxicity assay; assay type: cell-based; settings: at up to 100 μM; 24 h; 5Y cells; relative to DMSO
Description: Flavonoid 6 was synthesized following previously reported procedures with modifications.[66–68] […] It should be noted that cell viability was calculated, relative to that of the cells containing an equivalent amount of DMSO.
Cell viability was determined by the MTT assay [MTT = 3-(4,5-dimethylthiazol-2-yl)-2,5-diphenyltetrazolium bromide]. Cells were seeded in a 96-well plate (15,000 cells/100 µL) and treated with the samples {[flavonoid] = 5, 10, 25, 50, and 100 µM (1% v/v DMSO)}. After 24 h incubation, 5Y cells were washed with phosphate buffered saline (PBS; GIBCO). MTT [5 mg/mL in PBS (pH 7.4, GIBCO); 25 µL] was added to each well and the plate was incubated for 4 h at 37 °C. The formazan produced by cells was solubilized using an acidic solution of DMF (pH 4.5, 50% v/v, aq) and sodium dodecyl sulfate (SDS; 20% w/v) overnight at room temperature in the dark. Absorbance was measured at 600 nm by a microplate reader (Molecular Devices). Cell viability, relative to that of the cells containing an equivalent amount of DMSO, was calculated.
The measurements were conducted in triplicate. […]

[2] = target: T1, Aβ42 (Homo sapiens, UniProt P05067); assay: ESI-MS and ESI-MS2 of Aβ42 treated with 6; settings: 6 200 μM, 3 h
T1 construct: purchased Peptide Institute, Inc. (Osaka, Japan)
T1 sequence (P05067 672-713 limits assumed): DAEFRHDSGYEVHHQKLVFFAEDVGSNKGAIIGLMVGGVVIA
From the text: (§1) To identify the modifications of Aβ in both the absence and presence of Cu(II) upon treatment of 6, we carried out the studies employing electrospray ionization mass spectrometry (ESI-MS). In the sample containing metal-free Aβ42 and 6, the addition of +16 Da into the +3-charged Aβ42 monomer, assigned to be the oxidized monomeric Aβ42, was detected (Fig. 7a), while such oxidation was not observed under anaerobic conditions (Fig. S20 ^†). To determine the oxidized amino acid residues in Aβ42, the b fragments generated by collision-induced dissociation were analyzed by tandem MS (ESI-MS^2). As illustrated in Fig. 7b and S21a, ^† the Met35 residue was measured to be the oxidation site in the singly oxidized Aβ42. […] Similar to metal-free Aβ42, the oxidation of Aβ40 at the Met35 residue was monitored by incubation with 6 (Fig. S22a, b and S23a ^†). […]
(§2) 2D 1H−15N SOFAST-HMQC NMR Experiments. […] Experimental data were processed with NMRpipe29 and Sparky 3.115.30 The 1H and 15N assignments of 15N-labeled Ab were determined based on the previous results.21,31 The chemical shift perturbation was calculated following the equation (eq 4).32 Note that DdH and DdN represent the alterations in the chemical shifts of 1H and 15N of 15N-labeled Ab, respectively. […]

[3] = target: T2, Aβ40 (Homo sapiens, UniProt P05067); assay: ESI-MS and ESI-MS2 of Aβ40 treated with 6; settings: 6 200 μM, 3 h
T2 construct: Ab40 ([…]-; purchased Peptide Institute, Inc. (Osaka, Japan)
T2 sequence (P05067 672-711 limits assumed): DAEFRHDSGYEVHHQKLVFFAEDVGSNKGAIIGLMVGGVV
From the text: as §1, §2

In the case of `O=c1c(-c2ccc(O)c(O)c2)coc2cc(O)c(O)c(O)c12` [compound 6, 3-(3,4-dihydroxyphenyl)-5,6,7-trihydroxy-4H-chromen-4-one], the cell survival [1] is reported as over 90%, the “plausible oxidation sites in singly oxidized Aβ” value ([2]; Cu(II)–Aβ42, Cu(II) 100 μM) is reported as “His13, His14, and Met35” and the “oxidation site in singly oxidized Aβ” value ([2]; metal-free Aβ42 100 μM, aerobic) is reported as “Met35”. The “plausible oxidation sites in singly oxidized Aβ” value ([3]; Cu(II)–Aβ40, Cu(II) 100 μM) was “His13, His14, and Met35” and the “oxidation site in singly oxidized Aβ” value ([3]; metal-free Aβ40 100 μM) was “Met35”.
